Results from patent US20250049812A1, “Compounds that Inhibit Necroptosis and Their Preparation Methods” (SHANGHAI INSTITUTE OF ORGANIC CHEMISTRY, CHINESE ACADEMY OF …, priority 2021, published 2025).

Test system: Jurkat FADD (−/−) Cells
Assay: TNF-α induced necroptosis of Jurkat FADD-deficient cells (CellTiter-Glo cell survival)
Type: cell-based, human
Conditions: Homo sapiens, Jurkat, 13 h
Summary of the method: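 Cells in RPMI 1640 with 10% FBS were pretreated for 1 h at 37 °C with compound (12-point threefold series from 25 μM, or 0.5 μM, in triplicate). They were then stimulated with TNFα added as a 5 ng/mL solution for 13 h. Survival was read by luminescence.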

Compared with `COC(=O)C(=O)c1cn2c3c(cccc13)N(C)C(=O)[C@@H](NC(=O)c1nnc(Cc3ccccc3)[nH]1)C2` [T-92, Methyl(S)-2-(3-(5-benzyl-4H-1,2,4-triazole-3-carboxamide)-1-methyl-2-oxo-1,2,3,4-tetrahydro-[1,4]diazepine [3,2,1-hi]indol-7-yl)-2-oxoacetic Acid], `COC(=O)c1cn2c3c(cccc13)N(C)C(=O)[C@@H](NC(=O)c1nnc(Cc3ccccc3)[nH]1)C2` [T-95, Methyl (S)-3-(5-benzyl-4H-1,2,4-triazole-3-carboxamide)-1-methyl-2-oxo-1,2,3,4-tetrahydro-[1,4] diazepine [3,2,1-hi] indole-7-carboxylate] is lower in IC50: greater than 1000 nM for the first, 100 to 1000 nM for the second.

Compared with `CN1C(=O)[C@@H](NC(=O)c2nnc(Cc3ccccc3)[nH]2)Cn2cc(C(=O)C(F)(F)F)c3cccc1c32` [T-93, (S)-5-benzyl-N-(1-methyl-2-oxo-7-(2,2,2-trifluoroacetyl)-1,2,3,4-tetrahydro-[1,4]diazepine [3,2,1-hi]indol-3-yl)-4H-1,2,4-triazole-3-carboxamide], `CN1C(=O)[C@@H](NC(=O)c2nnc(Cc3ccccc3)[nH]2)Cn2cc(C(=O)O)c3cccc1c32` [T-94, (S)-3-(5-benzyl-4H-1,2,4-triazole-3-carboxamide)-1-methyl-2-oxo-1,2,3,4-tetrahydro-[1,4] diazabicyclo[3,2,1-hi] indole-7-carboxylic Acid] is higher in IC50: 100 to 1000 nM for the first, greater than 1000 nM for the second. The first is the more potent here.

Same assay, conditions: Homo sapiens; TNF-α induced necroptosis, Jurkat FADD-deficient cells, 13 hours, CellTiter-Glo; read-out: IC50

`CN1C(=O)C(NC(=O)c2nnc(Cc3ccccc3)[nH]2)Cc2cn(-c3ncccc3C(F)(F)F)c3cccc1c23` (racemic) [T-40, (±)-5-benzyl-N-(1-methyl-2-oxo-6-(3-(trifluoromethyl)pyridin-2-yl)-2,3,4,6-tetrahydro-1H-azacyclo [4,3,2-cd]indol-3-yl)-4H-1,2,4-triazole-3-carboxamide] and `CN1C(=O)C(NC(=O)c2nnc(Cc3ccccc3)[nH]2)Cn2cc(-c3ncccc3C(F)(F)F)c3cccc1c32` (stereo not drawn) [T-82, 5-benzyl-N-(1-methyl-2-oxo-7-(3-(trifluoromethyl)pyridin-2-yl)-1,2,3,4-tetrahydro-[1,4]diazepino[3,2,1-hi]indol-3-yl)-4H-1,2,4-triazole-3-carboxamide] cannot be ordered by IC50: less than 10 nM for the first, less than 10 nM for the second.

First: CN1C(=O)C(NC(=O)c2nnc(Cc3ccccc3)[nH]2)Cc2c[nH]c3ccc(F)c1c23 (racemic) [T-131, (±)-5-benzyl-N-(9-fluoro-1-methyl-2-oxo-2,3,4,6-tetrahydroazepincd [4,3,2-cd]indol-3-yl)-4H-1,2,4-triazole-3-carboxamide]
Second: CN1C(=O)[C@@H](NC(=O)c2nnc(Cc3ccccc3)[nH]2)Cc2c[nH]c3nccc1c23 [T-71, (S)-5-benzyl-N-(6-methyl-7-oxo-6,7,8,9-tetrahydro-2H-2,3,6-triazabenzene[cd]azulene-8-yl)-4H-1,2,4-triazole-3-carboxamide]
The IC50 of the first is lower: less than 10 nM for the first, 10 to 100 nM for the second.

First: CN1C(=O)[C@@H](NC(=O)c2nnc(Cc3ccccc3)[nH]2)Cc2n[nH]c3cccc1c23 [T-72, (S)-5-benzyl-N-(6-methyl-7-oxo-6,7,8,9-tetrahydro-2H-azacyclo [4,3,2-cd]indazol-8-yl)-4H-1,2,4-triazole-3-carboxamide]
Second: CN1C(=O)[C@@H](NC(=O)c2nnc(Cc3ccccc3)[nH]2)Cn2cc(-c3ccn[nH]3)c3cccc1c32 [T-116, (S)-5-benzyl-N-(1-methyl-2-oxo-7-(1H-pyrazol-5-yl)-1,2,3,4-tetrahydro-[1,4]diazepine [3,2,1-hi]indol-3-yl)-4H-1,2,4-triazole-3-carboxamide]
The IC50 of the first is higher: 100 to 1000 nM for the first, 10 to 100 nM for the second. The second is the more potent here.

`COc1ncccc1-c1cn2c3c(cccc13)N(C)C(=O)C(NC(=O)c1nnc(Cc3ccccc3)[nH]1)C2` (stereo not drawn) [T-78, 5-benzyl-N-(7-(2-methoxypyridin-3-yl)-1-methyl-2-oxo-1,2,3,4-tetrahydro-[1,4]diazepino[3,2,1-hi]indol-3-yl)-4H-1,2,4-triazole-3-carboxamide] and `Cc1nn(C)cc1-c1cn2c3c(cccc13)N(C)C(=O)[C@@H](NC(=O)c1nnc(Cc3ccccc3)[nH]1)C2` [T-117, (S)-5-benzyl-N-(7-(1,3-dimethyl-1H-pyrazol-4-yl)-1-methyl-2-oxo-1,2,3,4-tetrahydro-1,4-diazepine [3,2,1-hi]indol-3-yl)-4H-1,2,4-triazole-3-carboxamide] cannot be ordered by IC50: less than 10 nM for the first, less than 10 nM for the second.

`Cc1cnn(C)c1-c1cn2c3c(cccc13)N(C)C(=O)C(NC(=O)c1nnc(Cc3ccccc3)[nH]1)C2` (stereo not drawn) [T-81, 5-benzyl-N-(7-(1,4-dimethyl-1H-pyrazol-5-yl)-1-methyl-2-oxo-1,2,3,4-tetrahydro-[1,4]diazepino[3,2,1-hi]indol-3-yl)-4H-1,2,4-triazole-3-carboxamide] and `Cc1c(-c2cn3c4c(cccc24)N(C)C(=O)[C@@H](NC(=O)c2nnc(Cc4ccccc4)[nH]2)C3)cnn1C` [T-125, (S)-5-benzyl-N-(7-(1,5-dimethyl-1H-pyrazol-4-yl)-1-methyl-2-oxo-1,2,3,4-tetrahydro-1,4-diazepine [3,2,1-hi]indol-3-yl)-4H-1,2,4-triazole-3-carboxamide] cannot be ordered by IC50: less than 10 nM for the first, less than 10 nM for the second.

First: Cc1noc(C)c1-c1cn2c3c(cccc13)N(C)C(=O)C(NC(=O)c1nnc(Cc3ccccc3)[nH]1)C2 (stereo not drawn) [T-86, 5-benzyl-N-(7-(3,5-dimethylisoxazol-4-yl)-1-methyl-2-oxo-1,2,3,4-tetrahydro-[1,4]diazepine[3,2,1-hi]indol-3-yl)-4H-1,2,4-triazole-3-carboxamide]
Second: CN1C(=O)[C@@H](NC(=O)c2nnc(Cc3ccccc3)[nH]2)Cn2cc(-c3cnc(Cl)n3C)c3cccc1c32 [T-126, (S)-5-benzyl-N-(7-(2-chloro-1-methyl-1H-imidazol-5-yl)-1-methyl-2-oxo-1,2,3,4-tetrahydro-1,4-diazepine [3,2,1-hi]indol-3-yl)-4H-1,2,4-triazole-3-carboxamide]
The IC50 of the first is lower: less than 10 nM for the first, 10 to 100 nM for the second.

`CN1C(=O)[C@@H](NC(=O)c2nnc(Cc3ccccc3)[nH]2)Cn2cc(-c3cnn(C(F)F)c3)c3cccc1c32` [T-115, (S)-5-benzyl-N-(7-(1-(difluoromethyl)-1H-pyrazol-4-yl)-1-methyl-2-oxo-1,2,3,4-tetrahydro-1,4-diazepine [3,2,1-hi]indol-3-yl)-4H-1,2,4-triazole-3-carboxamide] and `CN1C(=O)[C@@H](NC(=O)c2nnc(Cc3ccccc3)[nH]2)Cn2cc(-c3cnn(CC(F)(F)F)c3)c3cccc1c32` [T-124, (S)-5-benzyl-N-(1-methyl-2-oxo-7-(1-(2,2,2-trifluoroethyl)-1H-pyrazol-4-yl)-1,2,3,4-tetrahydro-[1,4]diazepine [3,2,1-hi]indol-3-yl)-4H-1,2,4-triazole-3-carboxamide] fall in the same range of IC50: 10 to 100 nM for the first, 10 to 100 nM for the second.

First: CN1C(=O)[C@@H](NC(=O)c2nnc(Cc3ccccc3)[nH]2)Cn2cc(-c3cnn(C4CCOCC4)c3)c3cccc1c32 [T-120, (S)-5-benzyl-N-(1-methyl-2-oxo-7-(1-(tetrahydro-2H-pyran-4-yl)-1H-pyrazol-4-yl)-1,2,3,4-tetrahydro-1,4-diazepine[3,2,1-hi]indol-3-yl)-4H-1,2,4-triazole-3-carboxamide]
Second: CN1C(=O)[C@@H](NC(=O)c2nnc(Cc3ccccc3)[nH]2)Cn2cc(-c3cnn(C4CC4)c3)c3cccc1c32 [T-121, (S)-5-benzyl-N-(7-(1-cyclopropyl-1H-pyrazol-4-yl)-1-methyl-2-oxo-1,2,3,4-tetrahydro-1,4-diazepino [3,2,1-hi]indol-3-yl)-4H-1,2,4-triazole-3-carboxamide]
The IC50 of the first is lower: less than 10 nM for the first, 10 to 100 nM for the second.

`CN1C(=O)[C@@H](NC(=O)c2nnc(Cc3ccccc3)[nH]2)Cn2cc(-c3cn(C)nc3-c3ccccc3)c3cccc1c32` [T-122, (S)-5-benzyl-N-(1-methyl-7-(1-methyl-3-phenyl-1H-pyrazol-4-yl)-2-oxo-1,2,3,4-tetrahydro-[1,4]diazepine [3,2,1-hi]indol-3-yl)-4H-1,2,4-triazole-3-carboxamide] and `CN1C(=O)[C@@H](NC(=O)c2nnc(Cc3ccccc3)[nH]2)Cn2cc(-c3cncs3)c3cccc1c32` [T-123, (S)-5-benzyl-N-(1-methyl-2-oxo-7-(thiazol-5-yl)-1,2,3,4-tetrahydro-[1,4]diazepine [3,2,1-hi]indol-3-yl)-4H-1,2,4-triazole-3-carboxamide] fall in the same range of IC50: 10 to 100 nM for the first, 10 to 100 nM for the second.

Molecule `CN1C(=O)[C@@H](NC(=O)c2ncc(Cc3ccccc3)o2)Cn2cc(-c3cn(C)nc3C(F)(F)F)c3cccc1c32` [T-127, (S)-5-benzyl-N-(1-methyl-7-(1-methyl-3-(trifluoromethyl)-1H-pyrazol-4-yl)-2-oxo-1,2,3,4-tetrahydro-[1,4]diazepine [3,2,1-hi]indol-3-yl)oxazole-2-carboxamide] has an IC50 of less than 10 nM.

Same assay, conditions: TNF-α induced necroptosis, Jurkat FADD-deficient cells, 13 hours, CellTiter-Glo; read-out: IC50

`CN1C(=O)[C@@H](NC(=O)c2nnc(Cc3ccccc3)[nH]2)Cn2ccc3c(-c4c[nH]nc4C(F)(F)F)ccc1c32` [T-113, (S)-5-benzyl-N-(1-methyl-2-oxo-7-(3-(trifluoromethyl)-1H-pyrazol-4-yl)-1,2,3,4-tetrahydro-[1,4]diazepine [3,2,1-hi]indol-3-yl)-4H-1,2,4-triazole-3-carboxamide] and “(±)-5-(3-(5-benzyl-4H-1,2,4-triazole-3-carboxamido)-1-methyl-2-oxo-1,2,3,4-tetrahydro-6H-azacyclo [4,3,2-cd] indol-6-yl)oxazole-4-carboxylate [T-98]” cannot be ordered by IC50: less than 10 nM for the first, less than 10 nM for the second.

Test system: not listed separately
Assay: Study of oral pharmacokinetics in rats
Conditions: rat, in vivo, male SD rats, p.o., 5 mg/kg
Protocol: Healthy male SD rats were used as experimental animals. The intragastric (p.o.) administration was performed, with a dosage of 5 mg/kg or 15 mg/kg. Preparation: the compound was dissolved in a formulation made of 1% tween 80, 1% HMPC, and 98% water. The mixture was ground and shaken until the compound was uniformly distributed with a small particle size, and then 1 equivalent of methanesulfonic acid was added. The intravenous administration was performed with a dosage of 1 mg/kg. Preparation: 5% DMSO, 10% EtOH, 10% sulotol, and 75% physiological saline was added to the compound, and mixed well. Samples were taken at 5 minutes, 15 minutes, 30 minutes, 1 hour, 2 hours, 4 hours, 6 hours, and 8 hours after administration, and then the samples were analyzed using liquid chromatography tandem mass spectrometry (LC-MS/MS).

Molecule `CN1C(=O)C(NC(=O)c2nnc(Cc3ccccc3)[nH]2)Cc2cn(-c3ncccc3C(F)(F)F)c3cccc1c23` (racemic) [T-40, (±)-5-benzyl-N-(1-methyl-2-oxo-6-(3-(trifluoromethyl)pyridin-2-yl)-2,3,4,6-tetrahydro-1H-azacyclo [4,3,2-cd]indol-3-yl)-4H-1,2,4-triazole-3-carboxamide] has a Cmax of 2230 ng/mL.

Work on `CN1C(=O)C(NC(=O)c2nnc(Cc3ccccc3)[nH]2)Cc2cn(-c3ncccc3C(F)(F)F)c3cccc1c23` (racemic) [T-40, (±)-5-benzyl-N-(1-methyl-2-oxo-6-(3-(trifluoromethyl)pyridin-2-yl)-2,3,4,6-tetrahydro-1H-azacyclo [4,3,2-cd]indol-3-yl)-4H-1,2,4-triazole-3-carboxamide] yielded a Tmax of 1 h.

With `CN1C(=O)C(NC(=O)c2nnc(Cc3ccccc3)[nH]2)Cc2cn(-c3ncccc3C(F)(F)F)c3cccc1c23` (racemic) [T-40, (±)-5-benzyl-N-(1-methyl-2-oxo-6-(3-(trifluoromethyl)pyridin-2-yl)-2,3,4,6-tetrahydro-1H-azacyclo [4,3,2-cd]indol-3-yl)-4H-1,2,4-triazole-3-carboxamide] the half-life was 3.26 h.

Same assay, conditions: rat, in vivo, male SD rats, p.o., 5 mg/kg, i.v. 1 mg/kg

With `CN1C(=O)C(NC(=O)c2nnc(Cc3ccccc3)[nH]2)Cc2cn(-c3ncccc3C(F)(F)F)c3cccc1c23` (racemic) [T-40, (±)-5-benzyl-N-(1-methyl-2-oxo-6-(3-(trifluoromethyl)pyridin-2-yl)-2,3,4,6-tetrahydro-1H-azacyclo [4,3,2-cd]indol-3-yl)-4H-1,2,4-triazole-3-carboxamide] the bioavailability was 31.4%.

Same assay, conditions: rat, in vivo, male SD rats, p.o., 5 mg/kg, read-out: AUC0-8

For `CN1C(=O)C(NC(=O)c2nnc(Cc3ccccc3)[nH]2)Cc2cn(-c3ncccc3C(F)(F)F)c3cccc1c23` (racemic) [T-40, (±)-5-benzyl-N-(1-methyl-2-oxo-6-(3-(trifluoromethyl)pyridin-2-yl)-2,3,4,6-tetrahydro-1H-azacyclo [4,3,2-cd]indol-3-yl)-4H-1,2,4-triazole-3-carboxamide], the AUC(0-t) was 9040 ng·h/mL.
